# T1: NAC1 (Homo sapiens, UniProt Q96RE7)
# T1 sequence (Q96RE7 1-527): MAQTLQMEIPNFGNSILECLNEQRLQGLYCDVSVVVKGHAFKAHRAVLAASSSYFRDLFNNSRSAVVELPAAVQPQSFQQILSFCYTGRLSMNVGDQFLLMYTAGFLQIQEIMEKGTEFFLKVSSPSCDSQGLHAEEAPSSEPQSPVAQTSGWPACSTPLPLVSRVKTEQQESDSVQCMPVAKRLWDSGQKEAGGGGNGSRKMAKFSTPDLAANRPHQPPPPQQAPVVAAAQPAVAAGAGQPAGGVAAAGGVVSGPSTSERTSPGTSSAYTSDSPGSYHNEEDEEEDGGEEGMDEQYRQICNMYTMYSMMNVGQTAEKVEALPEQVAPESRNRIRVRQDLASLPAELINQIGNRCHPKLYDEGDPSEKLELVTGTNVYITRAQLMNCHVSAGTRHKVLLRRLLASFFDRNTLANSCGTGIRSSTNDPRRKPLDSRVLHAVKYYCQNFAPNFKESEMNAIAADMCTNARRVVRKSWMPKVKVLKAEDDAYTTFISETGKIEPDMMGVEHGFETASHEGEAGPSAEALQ
# B1: IL-10: recombinant mouse cytokine from BioLegend (protein, UniProt P18893 19-178, looked up)
# Interleukin-10: SRGQYSREDNNCTHFPVGQSHMLLELRTAFSQVKTFFQTKDQLDNILLTDSLMQDFKGYLGCQALSEMIQFYLVEVMPQAEKHGPEIKEHLNSLGEKLKTLRMRLRRCHRFLPCENKSKAVEQVKSDFNKLQDQGVYKAMNEFDIFINCIEAYMMIKMKS
# How the values were obtained:
# mouse CD8+ T cells = mouse CD8+ T cells cultured in CM from NAC1 KO B16-OVA cells supplemented with LA; format: cell-based; conditions: 2 mM or 5 mM LA
# Procedure: Next, mouse CD8^+ T cells in the CM from NAC1 KO mouse B16-OVA cells were cultured and the medium was supplemented with or without 2 mM or 5 mM LA. The addition of LA reduced the production of cytokines including TNF-alpha and IFN-gamma and increased the expression of PD-1 and TIM-3 of CD8^+ T cells (FIGS. 9A-9D). […] In parallel, NAC1 KO tumor cells were transfected with an LDHA expression retroviral vector or a retroviral backbone to overexpress LDHA in NAC1 KO B16-OVA. The mouse CD8^+ T cells in the CM were cultured from NAC1 KO B16-OVA cells overexpressing LDHA (NAC1 KO LDHA OE) or an empty control (NAC1 KO Mock). The overexpression of LDHA conferred NAC1 KO mouse tumor cells with the ability to suppress the production of cytokines and increased expression of PD-1 (FIGS. 9I-9L) and apoptosis (FIGS. 9M-9P) of mouse cytotoxic CD8^+ T cells.
# In vitro analysis of CD8^+ T cells. For cytotoxicity analysis, after 24 hours of activation 5×10^5 CD8^+ T cells were cultured with WT B16-OVA and NAC1 KO B16-OVA tumor cells in the ratio of 1:5 and 1:10 respectively. Cytotoxicity was measured by the CytoTox 96 Non-Radioactive Cytotoxicity Assay from Promega (#G1780, Madison, Wisconsin, USA). For cytokine expression analysis, the CD8^+ T cells were cultured with the conditional medium (CM) that was collected from WT B16-OVA and NAC1 KO B16-OVA melanoma cells for 12 hours. Before harvesting the cells, the cells were blocked with the Monensin Solution from BioLegend (#420701, San Diego, California, USA) for 4 hours. For apoptosis analysis, after 12 hours of activation the CD8^+ T cells were incubated with the CM that was collected from WT B16-OVA and NAC1 KO B16-OVA cells for 12 hours, in the absence or presence of L-LA from Sigma-Aldrich (St Louis, MI). […]
# Flow Cytometric analysis. […] Stained cell populations were acquired by LSRFortessa from BD Biosciences (Franklin, New Jersey, USA), and the results were analyzed by using FlowJo software from Tree Star (Ashland, Oregon, USA).
# tumor growth = conditions: cited from earlier work
# NAC1 = biological target: T1, NAC1; conditions: cited from earlier work
# Tregs = assay: treatment of Tregs with pro-inflammatory cytokines; format: cell-based, mouse
# Procedure: T cell culture. T cells were cultured in 48-well plates containing 1 ml RPMI 1640 (Invitrogen) with 10% fetal calf serum (Omega Scientific, CA). T cell isolation kits including mouse CD4^+ (#130-104-454), CD8a^+ (#130-104-075) and CD4^+ CD25^+ Treg (#130-091-041), T cell activation/expansion kit (#130-093-627) and Treg expansion kit (#130-095-925) were purchased from the Miltenyi Biotec (Auburn, CA). Recombinant mouse TGF-β (#763104), IL-10 (#575106), and TNF-α (#575206) were obtained from BioLegend (San Diego, CA).
molecule,measurement,setting,value
"CC(O)C(=O)O (stereo not drawn) [LA, lactic acid]",apoptosis determined by Annexin V staining,mouse CD8+ T cells,higher percentage of apoptosis
same,expression of PD-1 and TIM-3 of CD8+ T cells,mouse CD8+ T cells,increased
same,production of cytokines including TNF-alpha and IFN-gamma,mouse CD8+ T cells,reduced
CC(C)(C)c1ccc(OCC(=O)NCCNC(=O)COc2ccc(C(C)(C)C)cc2)cc1 [NIC3],antitumor activity,tumor growth,shows antitumor activity
same,NAC1 homodimerization,NAC1,can interrupt NAC1 homodimerization
TNF-α,FoxP3 and acetylated FoxP3 in Tregs,Tregs,evident downregulation
same,NAC1 expression in Tregs,Tregs,robust upregulation
B1,FoxP3 and acetylated FoxP3 in Tregs,Tregs,evident downregulation
same,NAC1 expression in Tregs,Tregs,robust upregulation

# Reference: US20250011781A1, “METHODS AND COMPOSITIONS TARGETING NUCLEUS ACCUMBENS-ASSOCIATED PROTEIN-1 FOR TREATMENT OF AUTOIMMUNE DISORDERS AND CANCERS” (THE TEXAS A&M UNIVERSITY SYSTEM, priority 2021, published 2025)
